Test results reported in patent publication US11590116B2 (THERAVANCE BIOPHARMA R&D IP, LLC, priority 2019, dated 2023).

Experiments:
[1] = tested on: TGF-β-stimulated SMAD3 phosphorylation in BEAS-2B cells; experiment: Cellular ALK5 potency assay, inhibition of TGF-β stimulated pSMAD3 formation in BEAS-2B cells; type: cell-based; conditions: Homo sapiens; inhibition of TGF-β stimulated pSMAD3 formation, BEAS-2B cells; read-out: BEAS2B pIC50 (converted)
Procedure, shortened: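 Cells seeded overnight; rinse with supplemented HBSS; compound 1 h at 37 °C; TGF-β 10 ng/mL final, 30 min; lyse; AlphaLISA acceptor and detector beads 2 h apart, read next day. Potency expressed as pIC50.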

[2] = target: T1, recombinant human ALK5 (TGF-βR1) protein (Homo sapiens, UniProt P36897); experiment: Biochemical ALK5 (TGF-βR1) assay to measure pKi (LANCE Ultra ULight kinase assay); conditions: apparent pKi from pIC50 by Cheng-Prusoff, read-out: ALK5 pKi (converted)
T1 construct: purchased Life Technologies PR9075A
T1 sequence (P36897 34-503): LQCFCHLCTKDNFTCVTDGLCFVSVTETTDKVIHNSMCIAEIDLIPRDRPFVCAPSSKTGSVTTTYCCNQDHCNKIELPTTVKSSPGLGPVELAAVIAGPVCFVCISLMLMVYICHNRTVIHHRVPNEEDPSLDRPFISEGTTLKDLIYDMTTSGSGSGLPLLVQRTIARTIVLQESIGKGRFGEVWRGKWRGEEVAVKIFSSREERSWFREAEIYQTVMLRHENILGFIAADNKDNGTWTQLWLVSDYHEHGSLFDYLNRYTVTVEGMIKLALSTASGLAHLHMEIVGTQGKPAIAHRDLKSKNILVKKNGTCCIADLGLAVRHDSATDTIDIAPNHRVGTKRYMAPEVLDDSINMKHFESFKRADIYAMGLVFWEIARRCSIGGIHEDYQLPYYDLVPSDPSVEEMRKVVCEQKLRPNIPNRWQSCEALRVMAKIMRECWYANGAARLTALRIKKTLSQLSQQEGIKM
Procedure, shortened: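 Compounds (10 μM to 25 pM) were preincubated 60 min at room temperature with enzyme, then reactions were started with ATP (125 μM stock, 5× final) and run 60 min at 37 °C. EDTA-containing Eu-anti-phospho-Topo IIα (Thr1342) antibody stopped the reaction; TR-FRET read at 665 nm. pIC50 from 4-parameter fit, converted to pKi via Cheng-Prusoff.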

| Ki [2] | Structure (SMILES) | IC50 [1] |
| --- | --- | --- |
| 0.0398 to 0.316 nM | CCc1cccc(-c2n[nH]cc2-c2ccc3ncc(-c4ccn(CCNC)n4)cc3n2)n1 [Compound 92, 2-(3-(6-(3-(6-ethylpyridin-2-yl)-1H-pyrazol-4-yl)-1,5-naphthyridin-3-yl)-1H-pyrazol-1-yl)-N-methylethan-1-amine] | 25.1 to 158 nM |
| 0.0398 to 0.316 nM | Cc1cccc(-c2[nH]cnc2-c2ccc3ncc(NCCN4C[C@@H](C)N[C@@H](C)C4)cc3c2)n1 [Compound 313, N-(2-((3R,5S)-3,5-dimethylpiperazin-1-yl)ethyl)-6-(5-(6-methylpyridin-2-yl)-1H-imidazol-4-yl)quinolin-3-amine] | 25.1 to 158 nM |
| < 0.0316 nM | COc1nc(-c2ccc3ncc(C4=CCC5(CCNCC5)CC4)cc3c2)c(-c2cccc(C)n2)[nH]1 [Compound 1251, 9-[6-[2-methoxy-5-(6-methyl-2-pyridyl)-1H-imidazol-4-yl]-3-quinolyl]-3-azaspiro[5.5]undec-9-ene] | 25.1 to 158 nM |
| 0.0398 to 0.316 nM | Cc1cccc(-c2[nH]cnc2-c2ccc3ncc(C(=O)OCCN4CCC5(CC4)CNC5)cc3c2)n1 [Compound 892, 2-(2,7-diazaspiro[3.5]nonan-7-yl)ethyl 6-(5-(6-methylpyridin-2-yl)-1H-imidazol-4-yl)quinoline-3-carboxylate] | 200 to 1260 nM |
| 0.0398 to 0.316 nM | Cc1cccc(-c2[nH]cnc2-c2ccc3ncc(-c4ncc(C(=O)OCCN5CCNCC5)s4)cc3c2)n1 [Compound 1187, 2-piperazin-1-ylethyl 2-[6-[5-(6-methyl-2-pyridyl)-1H-imidazol-4-yl]-3-quinolyl]thiazole-5-carboxylate] | 25.1 to 158 nM |
| 0.0398 to 0.316 nM | Cc1cccc(-c2[nH]cnc2-c2ccc3ncc(NCCC4CCCNC4)cc3c2)n1 (centres unmarked) [Compound 222, 6-[5-(6-methyl-2-pyridyl)-1H-imidazol-4-yl]-N-[2-(3-piperidyl)ethyl]quinolin-3-amine] | 25.1 to 158 nM |
| 0.0398 to 0.316 nM | Cc1cccc(-c2[nH]cnc2-c2ccc3ncc(N4CCCNCC4)cc3n2)n1 [Compound 307, 7-(1,4-diazepan-1-yl)-2-(5-(6-methylpyridin-2-yl)-1H imidazol-4-yl)-1,5-naphthyridine] | 25.1 to 158 nM |
| 0.0398 to 0.316 nM | Cc1cccc(-c2[nH]cnc2-c2ccc3ncc(-c4ccc(C(=O)O[C@H]5CCNC5)cn4)cc3c2)n1 [Compound 1119, [(3S)-pyrrolidin-3-yl] 6-[6-[5-(6-methyl-2-pyridyl)-1H-imidazol-4-yl]-3-quinolyl]pyridine-3-carboxylate] | 25.1 to 158 nM |
| < 0.0316 nM | Cc1nc(-c2n[nH]cc2-c2ccc3ncc(-c4cnn5c4NCCC5)cc3n2)ccc1F [Compound 1, 2-[3-(5-fluoro-6-methyl-2-pyridyl)-1H-pyrazol-4-yl]-7-(4,5,6,7-tetrahydropyrazolo[1,5-a]pyrimidin-3-yl)-1,5-naphthyridine] | 25.1 to 158 nM |
| < 0.0316 nM | Cc1cccc(-c2n[nH]cc2-c2ccc3ncc(-c4[nH]nc5c4CCN5)cc3n2)n1 [Compound 393, 2-[3-(6-methyl-2-pyridyl)-1H-pyrazol-4-yl]-7-(2,4,5,6-tetrahydropyrrolo[2,3-c]pyrazol-3-yl)-1,5-naphthyridine] | 25.1 to 158 nM |
| 0.398 to 3.16 nM | COC(=O)c1ccnc2ccc(-c3c(OC)n[nH]c3-c3cccc(C)n3)nc12 [Compound 864, methyl 6-[3-methoxy-5-(6-methyl-2-pyridyl)-1H-pyrazol-4-yl]-1,5-naphthyridine-4-carboxylate] | 200 to 1260 nM |
| 0.0398 to 0.316 nM | Cc1cccc(-c2nc3ccccn3c2-c2ccc3ncc(Br)cc3n2)n1 [Compound 657, 7-bromo-2-[2-(6-methyl-2-pyridyl)imidazo[1,2-a]pyridin-3-yl]-1,5-naphthyridine] | 25.1 to 158 nM |
| < 0.0316 nM | Cc1cccc(-c2n[nH]cc2-c2ccc3ncc(N4CCNCC4)cc3c2)n1 [Compound 529, 6-[3-(6-methyl-2-pyridyl)-1H-pyrazol-4-yl]-3-piperazin-1-yl-quinoline] | < 20 nM |
| 0.0398 to 0.316 nM | Cc1cccc(-c2[nH]cnc2-c2ccc3ncc(C(=O)OCCCN4CC5(CCNCC5)C4)cc3c2)n1 [Compound 903, 3-(2,7-diazaspiro[3.5]nonan-2-yl)propyl 6-(5-(6-methylpyridin-2-yl)-1H-imidazol-4-yl)quinoline-3-carboxylate] | 200 to 1260 nM |
| 0.0398 to 0.316 nM | Cc1cccc(-c2[nH]cnc2-c2ccc3ncc(NCCN(C)C4CCNC4)cc3c2)n1 (racemic) [Compound 537, N′-methyl-N-[6-[5-(6-methyl-2-pyridyl)-1H-imidazol-4-yl]-3-quinolyl]-N′-[rac-(3R)-pyrrolidin-3-yl]ethane-1,2-diamine] | 200 to 1260 nM |
| 3.98 to 31.6 nM | Cc1cccc(-c2[nH]cnc2-c2ccc3ncc(-c4cccc5c4CNCC5)cc3c2)n1 [Compound 493, 6-[5-(6-methyl-2-pyridyl)-1H-imidazol-4-yl]-3-(1,2,3,4-tetrahydroisoquinolin-8-yl)quinoline] | 200 to 1260 nM |
| 0.0398 to 0.316 nM | Cc1cccc(-c2[nH]cnc2-c2ccc3ncc(-c4ccc(C(=O)O[C@@H]5CCNC5)nc4)cc3c2)n1 [Compound 1110, [(3R)-pyrrolidin-3-yl] 5-[6-[5-(6-methyl-2-pyridyl)-1H-imidazol-4-yl]-3-quinolyl]pyridine-2-carboxylate] | 200 to 1260 nM |
| 0.0398 to 0.316 nM | CNCCn1cc(-c2cnc3ccc(-c4c(-c5cccc(C)n5)nn5c4NCC5)cc3c2)cn1 [Compound 632, N-methyl-2-[4-[6-[6-(6-methyl-2-pyridyl)-2,3-dihydro-1H-imidazo[1,2-b]pyrazol-7-yl]-3-quinolyl]pyrazol-1-yl]ethanamine] | 25.1 to 158 nM |
| 0.0398 to 0.316 nM | Cc1cccc(-c2nc3ccccn3c2-c2ccc3ncc(N4CCC(N5CCN(C)CC5)CC4)cc3n2)n1 [Compound 326, 7-[4-(4-methylpiperazin-1-yl)-1-piperidyl]-2-[2-(6-methyl-2-pyridyl)imidazo[1,2-a]pyridin-3-yl]-1,5-naphthyridine] | 25.1 to 158 nM |
| 0.0398 to 0.316 nM | Cc1nc(-c2nc3ccccn3c2-c2ccc3ncc(NCCN4CCN(C(C)C)CC4)cc3c2)ccc1F [Compound 620, 6-[2-(5-fluoro-6-methyl-2-pyridyl)imidazo[1,2-a]pyridin-3-yl]-N-[2-(4-isopropylpiperazin-1-yl)ethyl]quinolin-3-amine] | 25.1 to 158 nM |
| 0.0398 to 0.316 nM | Cc1cccc(-c2[nH]cnc2-c2ccc3ncc(C(=O)OCCN4C[C@@H](C)N[C@@H](C)C4)cc3c2)n1 [Compound 886, 2-((3S,5R)-3,5-dimethylpiperazin-1-yl)ethyl 6-(5-(6-methylpyridin-2-yl)-1H-imidazol-4-yl)quinoline-3-carboxylate] | 25.1 to 158 nM |
| < 0.0316 nM | Cc1nc(-c2n[nH]cc2-c2ccc3ncc(-c4cnn(CCN)c4)cc3n2)ccc1F [Compound 192, 2-[4-[6-[3-(5-fluoro-6-methyl-2-pyridyl)-1H-pyrazol-4-yl]-1,5-naphthyridin-3-yl]pyrazol-1-yl]ethanamine] | < 20 nM |
| 0.398 to 3.16 nM | Cc1cccc(-c2[nH]cnc2-c2ccc3ncc(C(=O)OC[C@@H]4CCCN4)cc3c2)n1 [Compound 762, [(2S)-pyrrolidin-2-yl]methyl 6-[5-(6-methyl-2-pyridyl)-1H-imidazol-4-yl]quinoline-3-carboxylate] | 25.1 to 158 nM |
| 0.398 to 3.16 nM | Cc1cccc(-c2n[nH]cc2-c2ccc3ncc(N4C[C@H]5C[C@@H]4CN5C)cc3n2)n1 (racemic) [Compound 437, 2-[3-(6-methyl-2-pyridyl)-1H-pyrazol-4-yl]-7-[rac-(1R,4R)-5-methyl-2,5-diazabicyclo[2.2.1]heptan-2-yl]-1,5-naphthyridine] | 25.1 to 158 nM |
| 3.98 to 31.6 nM | Cc1cccc(-c2[nH]nnc2-c2ccc3ncc(N4CCCNCC4)cc3n2)n1 [Compound 557, 7-(1,4-diazepan-1-yl)-2-[5-(6-methyl-2-pyridyl)-1H-triazol-4-yl]-1,5-naphthyridine] | 1580 to 10000 nM |
| 0.398 to 3.16 nM | Cc1cccc(-c2n[nH]cc2-c2ccc3nccc(CCCN4CCOCC4)c3n2)n1 [Compound 812, 4-[3-[6-[3-(6-methyl-2-pyridyl)-1H-pyrazol-4-yl]-1,5-naphthyridin-4-yl]propyl]morpholine] | 200 to 1260 nM |
| 3.98 to 31.6 nM | CCOC(=O)CCN(C)c1cnc2ccc(-c3c[nH]nc3-c3cccc(C)n3)nc2c1 [Compound 601, ethyl 3-[methyl-[6-[3-(6-methyl-2-pyridyl)-1H-pyrazol-4-yl]-1,5-naphthyridin-3-yl]amino]propanoate] | 200 to 1260 nM |
| 0.0398 to 0.316 nM | Cc1cccc(-c2[nH]cnc2-c2ccc3ncc(-c4ccc(C(=O)OCCNC5CNC5)cn4)cc3c2)n1 [Compound 1192, 2-(azetidin-3-ylamino)ethyl 6-[6-[5-(6-methyl-2-pyridyl)-1H-imidazol-4-yl]-3-quinolyl]pyridine-3-carboxylate] | 200 to 1260 nM |
